Where two headings read alike, the source gives them in different places. Values belong to the compound of their own block, whether it stands above or below them.
How the values were obtained:
IRE-1, ATF6, CHOP mRNA = assay: qRT-PCR of ER stress associated genes in HT-29 and HCT-15 cells; format: cell-based, human; conditions: 5-FU at IC50 dose; for CHOP mRNA expression: AGP 9.3 μM, MLT 0.18 mM alone or combined, 48 h, both cell lines
Experimental: (§1) FIG. 5. AGP and MLT synergistically induce ER stress-related molecules. HT-29 and HCT-15 cells were treated with AGP, MLT, AGP+MLT, and 5-FU for 48 h as indicated in the methodology section. Transcriptional level of expression of ER stress associated genes was determined by qRT-PCR for A. IRE-1, B. ATF6, and C. CHOP. Bar graphs show quantitative results normalized to GAPDH mRNA levels. Results are from three independent experiments. D. Treated and untreated cells were lysed, and protein expression was determined by immunoblotting for IRE-1, ATF6, phospho-PERK, and GAPDH.
(§2) Gene expression was evaluated as previously described (Banerjee et al., Oncotarget, (2016), 7(27):41432-41444). Primer sequences are listed in Supplementary Table 1. Relative gene expression changes were calculated using the 2^−ΔΔCT method, and expression normalization was accomplished using the housekeeping gene, GAPDH.

[1] = tested on: IRE-1, ATF6, phospho-PERK protein; assay: Immunoblotting of ER stress markers in HT-29 and HCT-15 cell lysates; format: cell-based, human; conditions: 5-FU treatment group; except IRE-1 protein level in HT-29
Experimental: as §1
(§3) Immunoblotting was performed as previously described (Banerjee, Basu, et al. 2016). The primary antibodies used were against ATF6 (#MA5-16172; Thermo Fisher Scientific) phospho-PERK (Thr 981) (#sc-32577; Santa Cruz biotechnology), IRE-1 (#3294S; Cell Signaling), phospho-VEGFReceptor1/Flt-1 (Y1213) (#AF4170; R&D systems,), total VEGFReceptor1 (R&D systems, #AF321), FoxM1 (R&D systems, #AF3975), and GAPDH (#G8795; Sigma Aldrich). Blots were incubated with HRP-conjugated secondary antibodies followed by enhanced chemiluminescence (ECL) detection. Images were captured using a Syngene G Box digital imager (Frederick, Md.) and results were quantified with densitometry as previously described (Blanchard et al. 2018).

[2] = tested on: VEGF165, VEGF189, VEGF receptor1, VEGF Receptor2, FoxM1, PTTG1 mRNA; assay: qRT-PCR of angiogenic signaling molecules in HT-29 and HCT-15 cells; format: cell-based, human
Experimental: (§4) FIG. 6. AGP and MLT synergistically downregulates angiogenic signaling molecules in colon cancer cells. HT-29 (left) and HCT-15 (right) cells were analyzed for A. VEGF165, B. VEGF189, C. VEGF receptor1, D. FoxM1, E. PTTG1 mRNA expression in the presence and absence of AGP, MLT and 5-FU. F. HT-29 and HCT-15 cell lysates were subjected for protein expression as indicated. (G-H). Quantification of FoxM1 was normalized with GAPDH and (I-J). p-VEGF receptor1 was normalized with total VEGF receptor 1. Statistical significance was determined using one-way ANOVA followed Bonferroni test (*P<0.05, **P<0.01, ***P<0.001).
as §2

[3] = tested on: FoxM1 and phospho-VEGF receptor1 protein; assay: Immunoblotting of angiogenic markers in HT-29 and HCT-15 cell lysates; format: cell-based, human; conditions: vs untreated and single compound groups
Experimental: as §4, §3

HT-29 = conditions: HT-29, previous studies (Lim et al. 2007); read-out: IC50 dose of 5-FU; cited from earlier work
HCT-15 = conditions: HCT-15, previous studies (Lim et al. 2007); read-out: IC50 dose of 5-FU; cited from earlier work
[4] = cited from earlier work
HCT-15 cells = assay: MTT cell viability assay with CompuSyn / Chou-Talalay combination index analysis; format: cell-based, human; conditions: for IC50: Homo sapiens, HCT-15, 48 h, median-effect plot, combination = total dose at 1:20, read-out: Dm values for HCT-15
Experimental: (§5) Cell cytotoxicity in the presence or absence of AGP and MLT was assessed using the MTT (Sigma Aldrich) assay as previously described (Banerjee et al., Helicobacter, (2016), 21(5):395-404). Cells (1×10^4) were plated in phenol-free complete RPMI media and incubated at 37° C. under 5% CO2 for 24 h. Cells were then simultaneously treated in quadruplicate wells with AGP (0-150 μM), MLT (0-3000 μM) or vehicle controls (0.1% DMSO). The media was replaced with MTT solution for each plate at its respective timepoint (either 24, 48, 72 h) followed by the addition of DMSO to dissolve the formazan crystals. Absorbance at 570 nm was determined using a microplate reader (Model 550, Bio-Rad, USA). The percent cell viability relative to the vehicle control was calculated using the following equation:
(§6) [formula] The IC50 value and slope (m) of the concentration-response curves were calculated using the CompuSyn software developed by Chou and Martin (Tun et al., Mar Drugs, (2019), 17(9): 10.3390/md17090536). Colospheroid Formation Assay
(§7) To determine an upper bound on both the individual doses drugs, we measured maximum cell death (near 0% cell viability). AGP achieved this level at 150 μM and MLT at 3 mM for 48 h (Banerjee et al., Helicobacter, (2016), 21(5):395-404, Reiter et al., Int J Mol Sci, (2017), 18(4), doi: 10.3390/ijms18040843). […] Serial dilution was conducted up to 6 times to anchor the observed cell deaths along the dose range.
(§8) To understand the Combination Index (CI), we first defined the fraction affected (Fa) and its counterpart, fraction unaffected (Fu). In our case, the percentage of viable cells determines the […], and 100—percentage of viable cells determines the Fu. The dose effect curve provides an overview of Fa vs. Dose (FIG. 2A and FIG. 2B). As expected, the individual AGP and MLT dose effect curves cradle the combinational dose effect curve below and above, respectively. This means that the total combinational dose to achieve the same Fa is greater than AGP's dose and less than MLT's dose. However, due to the 1:20 combinational ratio, we require less AGP and MLT absolutely.
(§9) [formula] The ratio between Fa and Fu aids in understanding when a given dose achieves the IC50 value. At 50% cell viability,
(§10) [formula] To linearly scale the datapoints, we also took the log of Dose. In this manner, the x intercept of the Median-Effect plot—also known as Dm—precisely determines the dose required to achieve the IC50 value. Immunoblotting

HT-29 cells = assay: as above; format: cell-based, human; conditions: for IC50: Homo sapiens, HT-29, 48 h, median-effect plot, combination = total dose at 1:20, read-out: Dm values for HT-29
Experimental: as §5, §6, §7, §8, §9, §10

HT-29 and HCT-15 cells = assay: MTT cell viability assay, one value given for both cell lines; format: cell-based, human; conditions: for IC50: Homo sapiens
Experimental: as §5, §6, §7, §8, §9, §10

[5] = biological target: Ki-67 in patient derived organoids (PDOD); assay: Ki-67 immunofluorescence in patient derived organoids; format: cell-based, human; conditions: AGP 15 μM, MLT 0.5 mM or both, 48 h; vs untreated
Experimental: Organoid cells were generated from stage 3 metastatic cancer tissue and cultured as previously described (Blanchard et al., Cell Physiol Biochem, (2018), 48(3):1259-1273; Banerjee et al., Gastroenterology and Hepatology International Journal, (2017), 2(2):1-2; Blanchard et al., Cancers (Basel), (2019), 11(2)). The cultures were passaged when the aggregates reached a diameter of approximately 800 μm. Organoids were treated with 15 μM AGP, 0.5 mM MLT, or both for 48 h. Treated and untreated organoids were subjected to morphological analysis and immunofluorescence for Ki67 expression.
Patient derived organoids were grown in 1:1 mixture of Matrigel and advanced DMEM:F12 (Life Technologies) supplemented with 1× penicillin/streptomycin, lx glutamine, 1×N2, 1×B27, 1 mM N-acetyl-L-cysteine, 20 ng/ml fibroblast growth factor and 50 ng/ml epidermal growth factor at 37° C. on a 4-chambered glass slide. […]
Fluorescence microscopy and colony counting were performed using an inverted fluorescence microscope (Olympus IX-71, Pennsylvania, USA). […] Fluorescence intensity was quantified using ImageJ software version 1.39 (NIH). RGB composite images from control and treated groups were created using Axion Vision rel, 4.6 and analyzed. […]

Cyclin B1, Prx, Trx = conditions: T84 and Colo 205 cell lysates, earlier publication; cited from earlier work
T84 and Colo 205 = conditions: cited from earlier work
CRC = conditions: previous studies; read-out: IC50 value of MLT for CRC; cited from earlier work

SMILES: O=c1[nH]cc(F)c(=O)[nH]1 [5-FU, 5-Fluorouracil]
ATF6 mRNA expression (IRE-1, ATF6, CHOP mRNA; HCT-15): induced significant
IRE-1 mRNA expression (IRE-1, ATF6, CHOP mRNA; HT-29 and HCT-15): induced significant
CHOP mRNA expression (IRE-1, ATF6, CHOP mRNA): attenuated
ER stress marker protein expression [1]: No significant changes
FoxM1 mRNA level [2]: no more significant reduction
PTTG1 mRNA level [2]: no more significant reduction
mVEGF165 level ([2]; both cell lines, vs untreated): increased
mVEGF189 level ([2]; both cell lines, vs untreated): increased
FoxM1 protein [3]: No further reduction
phospho-VEGF receptor1 protein [3]: No further reduction
IC50 (HT-29): 13 µM
IC50 (HCT-15): ~5 µM
overall response rate to 5-FU in adjuvant treatment ([4]; adjuvant treatment): less than 15%
overall response of 5-FU in advanced CRC ([4]; advanced CRC): about 10%

IC50 (HCT-15 cells): 26.5 µM
IC50 (HT-29 cells): 25.6 µM
IC50 (HT-29 and HCT-15 cells; 24 h (stated consistent with 48 h), read-out: IC50 value of AGP): 30 µM
IC50 (HT-29 and HCT-15 cells; AGP single dose, 48 h, read-out: IC50 values): 30 µM
Ki-67 expression [5]: greatly reduced
SMILES: C=C1CC[C@@H]2[C@](C)(CO)[C@H](O)CC[C@@]2(C)[C@@H]1C/C=C1/C(=O)OC[C@H]1O [AGP, andrographolide]
potency of AGP relative to MLT (HCT-15 cells; HCT-15, dose-effect curve): 26 fold
potency of AGP relative to MLT (HT-29 cells; HT-29, dose-effect curve): 40 fold
dose achieving maximum cell death (near 0% cell viability) (HT-29 and HCT-15 cells; 48 h): 150 µM
potency of AGP relative to MLT (basis of 1:20 ratio) (HT-29 and HCT-15 cells; from maximum cell death doses): 20 times
CHOP mRNA expression (IRE-1, ATF6, CHOP mRNA): Significant CHOP mRNA expression
Cyclin B1 expression, AGP alone (Cyclin B1, Prx, Trx): suppresses
IC50 (T84 and Colo 205; 48 h, published results, read-out: IC50 value for AGP as a single therapy): 45 µM
IC50 (T84 and Colo 205; T84 and Colo 205, previous study, read-out: IC50 value of AGP): 45 µM

IC50 (HCT-15 cells): 683 µM
IC50 (HT-29 cells): 1000 µM
IC50 (HT-29 and HCT-15 cells; MLT single dose, 48 h, read-out: IC50 values): 1000 µM
Ki-67 expression [5]: greatly reduced
SMILES: COc1ccc2[nH]cc(CCNC(C)=O)c2c1 [MLT, melatonin]
cell number at 24 h (HT-29 and HCT-15 cells; 24 h): transient increase in the cell number
dose achieving maximum cell death (near 0% cell viability) (HT-29 and HCT-15 cells; 48 h): 3000 µM
IC50 (CRC): 1000 to 2500 µM

Reference: patent US12589088B2, “Compositions and methods for treating cancer with andrographolide and melatonin combination therapy” (University of Maryland, Baltimore, priority 2020, dated 2026)
